Measurements reported in ChEMBL document CHEMBL5338758, “Design, Synthesis, and Bioevaluation of Novel MyD88 Inhibitor c17 against Acute Lung Injury Derived from the Virtual Screen” (J Med Chem, 2023).
Calls of active or inactive are those of the source. The calls are words filed in the database; no cut-off is given here.

Legend:
[1] = Drug distribution in Sprague-Dawley rat heart at 10 mg/kg, po measured after 1 hrs by LC-MS/MS analysis; format: ADME, organism-based; details: read-out: Drug uptake
[2] = tested on: Mus musculus; test: Anti-inflammatory activity against LPS-induced […] mouse model of […] assessed as alleviation of lung edema by measuring decrease in wet/dry weight ratio at 20 mg/kg, po pre-treated with compound for 30 mins followed by LPS stimulation and measured after 6 hrs; format: functional, organism-based; details: time 6.5 hrs
[3] = Drug distribution in Sprague-Dawley rat liver at 1 mg/kg, iv measured after 4 hrs by LC-MS/MS analysis; format: ADME, organism-based; details: read-out: Drug uptake
[4] = Drug distribution in Sprague-Dawley rat liver at 1 mg/kg, iv measured after 0.5 hrs by LC-MS/MS analysis; format: ADME, organism-based; details: read-out: Drug uptake
[5] = Drug distribution in Sprague-Dawley rat kidney at 10 mg/kg, po measured after 3 hrs by LC-MS/MS analysis; format: ADME, organism-based; details: read-out: Drug uptake
[6] = Drug distribution in Sprague-Dawley rat liver at 1 mg/kg, iv measured after 2 hrs by LC-MS/MS analysis; format: ADME, organism-based; details: read-out: Drug uptake
[7] = Drug distribution in Sprague-Dawley rat lung at 10 mg/kg, po measured after 3 hrs by LC-MS/MS analysis; format: ADME, organism-based; details: read-out: Drug uptake
[8] = Drug distribution in Sprague-Dawley rat heart at 10 mg/kg, po measured after 8 hrs by LC-MS/MS analysis; format: ADME, organism-based; details: read-out: Drug uptake
[9] = Drug distribution in Sprague-Dawley rat liver at 10 mg/kg, po measured after 3 hrs by LC-MS/MS analysis; format: ADME, organism-based; details: read-out: Drug uptake
[10] = Stability of compound in rat serum at 25 degreeC measured every 2 hrs for 24 hrs by HPLC analysis; format: ADME, cell-free
[11] = molecular target: TLR4-MyD88 (Mus musculus) (UniProt Q9QUK6+P22366); test: Inhibition of MyD88/TLR4 interaction in LPS-stimulated mouse J774.A1 cells at 40 to 80 uM preincubated with compound for 2 hrs followed by LPS stimulation by co-immunoprecipitation analysis; format: cell-based; details: dose 40-80 µM
[12] = molecular target: Myeloid differentiation primary response protein MyD88 (Homo sapiens, UniProt Q99836); test: Binding affinity to human MyD88 TIR domain by SPR analysis; details: dose 1.19-5.94 10^-5M
[13] = tested on: J774.A1; test: Cytotoxicity against mouse J774.A1 cells assessed as reduction in cell survival incubated for 24 hrs by MTT assay; format: toxicity, cell-based; details: j774.a1, 24 h
[14] = Drug distribution in Sprague-Dawley rat heart at 1 mg/kg, iv measured after 4 hrs by LC-MS/MS analysis; format: ADME, organism-based; details: read-out: Drug uptake
[15] = tested on: Mus musculus; test: Anti-inflammatory activity against LPS-induced […] mouse model of […] assessed as decrease in TNF-alpha level in BALF at 20 mg/kg, po pre-treated with compound for 30 mins followed by LPS stimulation and measured after 6 hrs; format: functional, organism-based; details: time 6.5 hrs
[16] = Drug distribution in Sprague-Dawley rat liver at 10 mg/kg, po measured after 8 hrs by LC-MS/MS analysis; format: ADME, organism-based; details: read-out: Drug uptake
[17] = Drug distribution in Sprague-Dawley rat spleen at 10 mg/kg, po measured after 3 hrs by LC-MS/MS analysis; format: ADME, organism-based; details: read-out: Drug uptake
[18] = tested on: J774.A1; test: Anti-inflammatory activity in mouse J774.A1 cells assessed as inhibition of LPS-induced TNF-alpha production at 10 uM pre-stimulated with LPS for 24 hrs followed by compound addition and measured after 0.5 hrs by ELISA analysis relative to control; format: functional
[19] = Toxicity in ICR mouse assessed as mortality at 20 to 400 mg/kg, po measured upto 21 days; format: organism-based; details: in vivo, 504 h, dose 20-400 mg/kg, time < 21 day
[20] = tested on: J774.A1; test: Anti-inflammatory activity in mouse J774.A1 cells assessed as inhibition of LPS-induced IL-6 production at 10 uM pre-stimulated with LPS for 24 hrs followed by compound addition and measured after 0.5 hrs by ELISA analysis relative to control; format: functional
[21] = Drug distribution in Sprague-Dawley rat spleen at 1 mg/kg, iv measured after 0.5 hrs by LC-MS/MS analysis; format: ADME, organism-based; details: read-out: Drug uptake
[22] = tested on: Mus musculus; test: Anti-inflammatory activity against LPS-induced […] mouse model of […] assessed as decrease in IL-6 level in BALF at 20 mg/kg, po pre-treated with compound for 30 mins followed by LPS stimulation and measured after 6 hrs; format: functional, organism-based; details: time 6.5 hrs
[23] = tested on: J774.A1; test: Anti-inflammatory activity in mouse J774.A1 cells assessed as inhibition of LPS-induced IL-6 production pre-stimulated with LPS for 24 hrs followed by compound addition and measured after 0.5 hrs by ELISA analysis; format: functional, cell-based
[24] = Drug distribution in Sprague-Dawley rat lung at 1 mg/kg, iv measured after 2 hrs by LC-MS/MS analysis; format: ADME, organism-based; details: read-out: Drug uptake
[25] = tested on: Mus musculus; test: (§1) Anti-inflammatory activity against LPS-induced […] mouse model of […] assessed as alleviation of tissue destruction in lung at 20 mg/kg, po pre-treated with compound for 30 mins followed by LPS stimulation and measured after 6 hrs by H&E staining based histopathological analysis; format: functional, organism-based; details: time 6.5 hrs
[26] = Drug distribution in Sprague-Dawley rat lung at 10 mg/kg, po measured after 8 hrs by LC-MS/MS analysis; format: ADME, organism-based; details: read-out: Drug uptake
[27] = Drug distribution in Sprague-Dawley rat brain at 1 mg/kg, iv measured after 4 hrs by LC-MS/MS analysis; format: ADME, organism-based; details: read-out: Drug uptake
[28] = Drug distribution in Sprague-Dawley rat lung at 10 mg/kg, po measured after 1 hrs by LC-MS/MS analysis; format: ADME, organism-based; details: read-out: Drug uptake
[29] = Drug distribution in Sprague-Dawley rat spleen at 1 mg/kg, iv measured after 2 hrs by LC-MS/MS analysis; format: ADME, organism-based; details: read-out: Drug uptake
[30] = AUC (0 to t) in Sprague-Dawley rat at 1 mg/kg, iv measured at 5 to 1440 min by LC-MS/MS analysis; format: ADME, organism-based; parameters: time upper 1440 min, time lower 5 min, dose 1 mg/kg, route iv; details: in vivo
[31] = tested on: Mus musculus; test: Anti-inflammatory activity against LPS-induced […] mouse model of […] assessed as decrease in IL-6 level in serum at 20 mg/kg, po pre-treated with compound for 30 mins followed by LPS stimulation and measured after 6 hrs; format: functional, organism-based; details: time 6.5 hrs
[32] = tested on: J774.A1; test: Inhibition of NF-kappaB pathway in LPS-induced mouse J774.A1 cells assessed as reduction in p65 nuclear reactivity preincubated with compound for 2 hrs followed by LPS-stimulation and measured after 15 mins by DAPI staining based immunofluorescence analysis; format: cell-based; details: time 135.0 min
[33] = tested on: Mus musculus; test: as §1, with “inflammatory infiltration” for “tissue destruction”; format: functional, organism-based; details: time 6.5 hrs
[34] = Drug distribution in Sprague-Dawley rat kidney at 10 mg/kg, po measured after 1 hrs by LC-MS/MS analysis; format: ADME, organism-based; details: read-out: Drug uptake
[35] = tested on: THP-1; test: Anti-inflammatory activity in human THP-1 cells assessed as inhibition of LPS-stimulated IL-6 release at 1.25 to 20 uM by ELISA analysis; format: functional, cell-based; details: dose 1.25-20 µM
[36] = Cmax in Sprague-Dawley rat at 1 mg/kg, iv measured at 5 to 1440 min by LC-MS/MS analysis; format: ADME, organism-based; parameters: time upper 1440 min, dose 1 mg/kg, time lower 5 min, route iv; details: in vivo
[37] = Tmax in Sprague-Dawley rat at 10 mg/kg, po measured at 15 to 1440 min by LC-MS/MS analysis; format: ADME, organism-based; details: in vivo, time 15-1440 min

Chain of TLR4-MyD88 (Mus musculus) (P22366 whole entry, looked up, the tested form may be a part): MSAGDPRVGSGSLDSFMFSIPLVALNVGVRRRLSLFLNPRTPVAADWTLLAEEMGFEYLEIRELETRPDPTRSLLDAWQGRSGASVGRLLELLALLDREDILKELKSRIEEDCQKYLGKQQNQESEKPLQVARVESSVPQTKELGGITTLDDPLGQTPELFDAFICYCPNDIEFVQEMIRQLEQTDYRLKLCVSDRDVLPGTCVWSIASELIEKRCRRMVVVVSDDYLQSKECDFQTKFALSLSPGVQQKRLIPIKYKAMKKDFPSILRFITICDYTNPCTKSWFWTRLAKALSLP
Chain of TLR4-MyD88 (Mus musculus) (Q9QUK6 whole entry, looked up, the tested form may be a part): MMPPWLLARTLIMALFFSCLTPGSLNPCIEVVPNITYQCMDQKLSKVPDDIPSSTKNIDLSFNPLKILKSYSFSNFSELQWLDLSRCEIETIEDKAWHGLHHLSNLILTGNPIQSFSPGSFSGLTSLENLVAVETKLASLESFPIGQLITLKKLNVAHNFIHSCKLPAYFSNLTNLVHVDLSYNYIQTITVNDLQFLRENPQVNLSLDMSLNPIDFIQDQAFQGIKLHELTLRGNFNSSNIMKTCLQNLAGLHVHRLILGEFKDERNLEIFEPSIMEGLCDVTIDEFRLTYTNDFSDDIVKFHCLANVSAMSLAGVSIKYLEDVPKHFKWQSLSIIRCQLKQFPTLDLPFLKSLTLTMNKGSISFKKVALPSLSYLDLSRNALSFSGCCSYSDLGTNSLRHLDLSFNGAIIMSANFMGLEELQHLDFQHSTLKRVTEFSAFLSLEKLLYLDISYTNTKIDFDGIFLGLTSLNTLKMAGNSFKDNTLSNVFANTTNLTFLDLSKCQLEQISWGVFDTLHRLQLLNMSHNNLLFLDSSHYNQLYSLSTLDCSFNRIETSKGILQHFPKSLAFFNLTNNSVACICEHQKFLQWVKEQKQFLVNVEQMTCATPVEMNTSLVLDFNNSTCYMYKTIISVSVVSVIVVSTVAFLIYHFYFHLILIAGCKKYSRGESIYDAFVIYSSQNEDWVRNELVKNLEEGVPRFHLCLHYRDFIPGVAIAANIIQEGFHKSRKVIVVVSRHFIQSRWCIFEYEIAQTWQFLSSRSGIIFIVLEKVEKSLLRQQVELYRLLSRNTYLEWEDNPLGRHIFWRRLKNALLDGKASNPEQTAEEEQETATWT
Chain of Myeloid differentiation primary response protein MyD88 (Q99836 whole entry, the tested form may be a part): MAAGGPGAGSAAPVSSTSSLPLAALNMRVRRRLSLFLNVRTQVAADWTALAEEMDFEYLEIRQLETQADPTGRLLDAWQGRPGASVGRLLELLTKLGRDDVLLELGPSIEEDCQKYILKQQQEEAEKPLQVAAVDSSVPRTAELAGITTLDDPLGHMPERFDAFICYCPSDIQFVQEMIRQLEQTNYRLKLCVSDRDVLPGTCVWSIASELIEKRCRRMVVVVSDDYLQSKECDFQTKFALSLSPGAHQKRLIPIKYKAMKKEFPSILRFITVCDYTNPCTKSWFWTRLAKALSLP

## COc1ccc(NS(=O)(=O)c2ccc(N3CCN(Cc4cccc([N+](=O)[O-])c4)CC3)c([N+](=O)[O-])c2)cn1
[1]
  concentration at 1 h: 10.6 ng/g
[2]
  Activity: Active
[3]
  concentration at 4 h: 137 ng/g
[4]
  concentration at 0.5 h: 166 ng/g
[5]
  concentration at 3 h: 3.31 ng/g
[6]
  concentration at 2 h: 192 ng/g
[7]
  concentration at 3 h: 37.1 ng/g
[8]
  concentration at 8 h: 452 ng/g
[9]
  concentration at 3 h: 287 ng/g
[10]
  Stability: Stable
[11]
  inhibition: Active
[12]
  Activity: Dose-Dependent Effect
[13]
  Activity: Non-Toxic
[14]
  concentration at 4 h: 275 ng/g
[15]
  Activity: Active
[16]
  concentration at 8 h: 249 ng/g
[17]
  concentration at 3 h: 32 ng/g
[18]
  inhibition at 10 µM: 36.7%
[19]
  Activity: Non-Toxic
[20]
  inhibition at 10 µM: 69%
[21]
  concentration at 0.5 h: 32.2 ng/g
[22]
  Activity: Active
[23]
  IC50: 2170 nM
[24]
  concentration at 2 h: 206 ng/g
[25]
  Activity: Active
[26]
  concentration at 8 h: 527 ng/g
[27]
  concentration at 4 h: 7.99 ng/g
[28]
  concentration at 1 h: 41.6 ng/g
[29]
  concentration at 2 h: 76.8 ng/g
[30]
  AUCt: 4795 ng·h/mL
[31]
  Activity: Active
[32]
  inhibition: Active
[33]
  Activity: Active
[34]
  concentration at 1 h: 4.15 ng/g
[35]
  inhibition: Active
[36]
  Cmax: 2770 ng/mL
[37]
  Tmax: 48 min
